Measurements taken from US20260109707A1, “HETEROBIFUNCTIONAL COMPOUNDS AND METHODS OF TREATING DISEASE” (Halda Therapeutics OpCo. Inc., priority 2022, published 2026).
Like-named read-outs stand apart in the source and are kept apart here.

Tests used:
[1] = tested on: VCaP cells; assay: Cellular growth inhibition assay for VCaP cells (CellTiter-Glo, 72 hours); format: cell-based, human
Outline: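 Luminescent viability signal after 72 h of compound exposure gave GI50 values by four-parameter nonlinear regression. Compounds were added in 0.5% DMSO to cells plated 24 h earlier at 5000/well in DMEM containing 10% FBS.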

[2] = tested on: T-Rex 293 cell line SC3 cells having increased expression of androgen receptor protein due to exposure to doxycycline; assay: Cellular growth inhibition assay, T-Rex 293 SC3 cells with doxycycline (CellTiter-Glo, 72 hours); format: cell-based; conditions: T-Rex 293 SC3 cells with increased androgen receptor expression due to doxycycline (10 ng/mL)
Outline: (§1)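 Doxycycline (10 ng/mL) was either included or omitted to toggle wild-type androgen receptor expression in SC3 cells, a T-Rex 293 clone, grown in stripped-serum, phenol red-free medium. After 72 hours with compound, viable cells were quantified by CellTiter-Glo 2.0.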

[3] = tested on: T-Rex 293 cell line SC3 cells lacking increased expression of androgen receptor protein; assay: Cellular growth inhibition assay, T-Rex 293 SC3 cells without doxycycline (CellTiter-Glo, 72 hours); format: cell-based; conditions: T-Rex 293 cell line SC3 cells not exposed to doxycycline (lacking increased androgen receptor expression)
Outline: as §1

Work on `Cc1sc2c(c1C)C(c1ccc(CC3CCC4(CCCN(c5ccc(C(=O)N[C@H]6CC[C@H](Oc7ccc(C#N)c(Cl)c7)CC6)nn5)C4)C3)cn1)=N[C@@H](C)c1nnc(C)n1-2` (stereo partly drawn) [I-622] yielded a GI50 [1] of over 3000 nM, a GI50 ([2]; 72 h) of under 500 nM and a GI50 ([3]; 72 h) of under 500 nM.
With `Cc1sc2c(c1C)C(c1ccc(C3CCC4(CCN(c5ccc(C(=O)N[C@H]6CC[C@H](Oc7ccc(C#N)c(Cl)c7)CC6)nn5)C4)C3)cc1)=N[C@@H](C)c1nnc(C)n1-2` (stereo partly drawn) [I-821, N-[4-(3-chloro-4-cyano-phenoxy)cyclohexyl]-6-[8-[4-[(9S)-4,5,9,13-tetramethyl-3-thia-1,8,11,12-tetrazatricyclo[8.3.0.02,6]trideca-2(6),4,7,10,12-pentaen-7-yl]phenyl]-2-azaspiro[4.4]nonan-2-yl]pyridazine-3-carboxamide] the GI50 ([1]; Homo sapiens, VCaP, 72 h) was under 500 nM, the GI50 ([2]; 72 h) was under 500 nM and the GI50 ([3]; 72 h) was under 500 nM.
For `Cc1sc2c(c1C)C(c1ccc(OC3CCC4(CCCN(c5ccc(C(=O)N[C@H]6CC[C@H](Oc7ccc(C#N)c(Cl)c7)CC6)nn5)C4)C3)cc1)=NC1(CC1)c1nnc(C)n1-2` (stereo partly drawn) [I-523], the GI50 [1] was over 3000 nM, the GI50 ([2]; 72 h) was under 500 nM and the GI50 [3] was over 3000 nM.
Work on `Cc1sc2c(c1C)C(c1ccc(N3CCC(CC4CCN(c5ccc(C(=O)N[C@H]6CC[C@H](Oc7ccc(C#N)c(Cl)c7)CC6)nn5)CC4)CC3)cc1)=N[C@@H](C)c1nnc(C)n1-2` [I-500] yielded a GI50 ([1]; Homo sapiens, VCaP, 72 h) of over 3000 nM, a GI50 ([2]; 72 h) of under 500 nM and a GI50 ([3]; 72 h) of over 3000 nM.
`Cc1sc2c(c1C)C(c1ccc(CCCC3CCN(c4ccc(C(=O)N[C@H]5CC[C@H](Oc6ccc(C#N)c(Cl)c6)CC5)nn4)CC3)cc1)=N[C@@H](C)c1nnc(C)n1-2` [I-592] showed a GI50 ([1]; Homo sapiens, VCaP, 72 h) of under 500 nM, a GI50 ([2]; 72 h) of under 500 nM and a GI50 ([3]; 72 h) of under 500 nM.
`Cc1sc2c(c1C)C(c1ccc(CCCC3CCCN(c4ccc(C(=O)N[C@H]5CC[C@H](Oc6ccc(C#N)c(Cl)c6)CC5)nn4)CC3)cc1)=N[C@@H](C)c1nnc(C)n1-2` (stereo partly drawn) [I-670] was tested, and the GI50 [1] was under 500 nM, the GI50 [2] was under 500 nM and the GI50 [3] was under 500 nM.
`Cc1sc2c(c1C)C(c1ccc(N3CCC4(CC3)CC(Cc3ccc(C(=O)N[C@H]5CC[C@H](Oc6ccc(C#N)c(Cl)c6)CC5)nn3)C4)cc1)=N[C@@H](C)c1nnc(C)n1-2` [I-605] showed a GI50 ([1]; Homo sapiens, VCaP, 72 h) of under 500 nM, a GI50 ([2]; 72 h) of under 500 nM and a GI50 ([3]; 72 h) of over 3000 nM.
For `Cc1sc2c(c1C)C(c1ccc(N3CCC4(CC3)CCN(c3ccc(C(=O)N[C@H]5CC[C@H](Oc6ccc(C#N)c(Cl)c6)CC5)nn3)C4)cc1)=NC(C(F)(F)F)c1nnc(C)n1-2` (single isomer, unassigned) [I-719], the GI50 [1] was under 500 nM, the GI50 [2] was under 500 nM and the GI50 [3] was over 3000 nM.
For `Cc1sc2c(c1C)C(c1cccc(OC3CCC4(CCN(c5ccc(C(=O)N[C@H]6CC[C@H](Oc7ccc(C#N)c(Cl)c7)CC6)nn5)C4)C3)c1)=N[C@@H](C)c1nnc(C)n1-2` (stereo partly drawn) [I-748], the GI50 ([1]; Homo sapiens, VCaP, 72 h) was under 500 nM, the GI50 ([2]; 72 h) was under 500 nM and the GI50 ([3]; 72 h) was under 500 nM.
`Cc1sc2c(c1C)C(c1ccc(C3CCC4(CC3)CCN(c3ccc(C(=O)N[C@H]5CC[C@H](Oc6ccc(C#N)c(Cl)c6)CC5)nn3)CC4)nc1)=N[C@@H](C)c1nnc(C)n1-2` [I-744] gave a GI50 [1] of under 500 nM, a GI50 [2] of under 500 nM and a GI50 [3] of 500 to 1500 nM.
`Cc1sc2c(c1C)C(c1ccccc1N1CCC3(CCCN(c4ccc(C(=O)N[C@H]5CC[C@H](Oc6ccc(C#N)c(Cl)c6)CC5)nn4)C3)CC1)=N[C@@H](C)c1nnc(C)n1-2` [I-737] was tested, and the GI50 ([1]; Homo sapiens, VCaP, 72 h) was 500 to 1500 nM, the GI50 ([2]; 72 h) was under 500 nM and the GI50 ([3]; 72 h) was under 500 nM.
With `Cc1sc2c(c1C)C(c1ccc(N3CCC4(CCN(c5ccc(C(=O)N[C@H]6CC[C@H](Oc7ccc(C#N)c(Cl)c7)CC6)nn5)CC4)C3)cc1)=NC(C(F)(F)F)c1nnc(C)n1-2` (stereo partly drawn) [I-726] the GI50 ([1]; Homo sapiens, VCaP, 72 h) was under 500 nM, the GI50 [2] was under 500 nM and the GI50 ([3]; 72 h) was over 3000 nM.
In the case of `Cc1sc2c(c1C)C(c1ccc(OC3CC4(C3)CC3(CCN(c5ccc(C(=O)N[C@H]6CC[C@H](Oc7ccc(C#N)c(Cl)c7)CC6)nn5)CC3)C4)nc1)=NC1(CC1)c1nnc(C)n1-2` [I-504], the GI50 ([1]; Homo sapiens, VCaP, 72 h) is reported as under 500 nM, the GI50 ([2]; 72 h) is reported as under 500 nM and the GI50 ([3]; 72 h) is reported as 500 to 1500 nM.
With `Cc1sc2c(c1C)C(c1ccc(CC3CC4(CCCN(c5ccc(C(=O)N[C@H]6CC[C@H](Oc7ccc(C#N)c(Cl)c7)CC6)nn5)C4)C3)cn1)=NC(Cc1ncco1)c1nnc(C)n1-2` (stereo partly drawn) [I-768] the GI50 ([1]; Homo sapiens, VCaP, 72 h) was under 500 nM, the GI50 [2] was under 500 nM and the GI50 [3] was over 3000 nM.
